“Also recorded” adds a separate entry of the source.
Tests used:
MOLM-13 cells = assay: Growth inhibition, CellTiter-Blue viability, 72 h; format: cell-based; conditions: Homo sapiens, MOLM-13 (Flt3-ITD+), read-out: Growth Suppression in AML Cell Lines (IC50, nM) MOLM-13
Protocol: (§1) Cells were seeded at a density of 100,000 cells per 1.0 ml in 48-well culture plates. Compounds were added to various concentrations while holding the DMSO concentration constant at 0.1%. Cell viability was assessed 72 hours later using the CellTiter-Blue Cell Viability assay (Promega) according to the manufacturer’s protocol and a SpectraMax Multi-Mode Microplate Reader (Molecular Devices). IC50 values were determined by non-linear regression analysis of concentration-response curves using the GraphPad PRISM software package (version 6.0). Apoptosis was determined using the same cell culture conditions and the Apo-ONE Homogeneous Caspase-3/7 Assay (Promega) and the manufacturer’s protocol.
(§2) Fig 2 Fes tyrosine kinase inhibitors induce growth arrest in Flt3-ITD^+ AML cell lines. A) The Flt3-ITD^+ cell lines MV4-11, MOLM-13, and MOLM-14, along with THP-1 (wild-type FLT3) were incubated with each of the kinase inhibitors shown over a range of concentrations, and cell viability was measured 72 h later using the CellTiter-Blue Assay (see Materials and methods). Raw fluorescence data were corrected for background and then normalized to cultures grown in the presence of the DMSO carrier solvent. Each assay condition was performed in triplicate, and results are presented as the mean of the normalized values ± the SD. The resulting dose-response curves were fitted by non-linear regression analysis, and the resulting IC50 values are shown in Table 1.

MOLM-14 cells = assay: Growth inhibition, CellTiter-Blue viability, 72 h; format: cell-based; conditions: Homo sapiens, MOLM-14 (Flt3-ITD+), read-out: Growth Suppression in AML Cell Lines (IC50, nM) MOLM-14
Protocol: as §1, §2

MV4-11 cells = assay: Growth inhibition, CellTiter-Blue viability, 72 h; format: cell-based; conditions: Homo sapiens, MV4-11 (Flt3-ITD+), read-out: Growth Suppression in AML Cell Lines (IC50, nM) MV4-11
Protocol: as §1, §2

THP-1 cells [1] = assay: Growth inhibition, CellTiter-Blue viability, 72 h; format: cell-based; conditions: Homo sapiens, THP-1 (wild-type Flt3), read-out: Growth Suppression in AML Cell Lines (IC50, nM) THP-1
Protocol: as §1, §2

[2] = system: TF-1 cells transduced with an empty retroviral vector (Control); assay: Inhibitor sensitivity of TF-1 cell populations, CellTiter-Blue, 72 h; format: cell-based, human
Protocol: as §1
(§3) For each retroviral transduction, TF-1 cells (1 x 10^6) were suspended in 5 mL of undiluted viral supernatant and plated in one well of a 6-well tissue culture dish. Polybrene (Sigma) was added to a final concentration of 4 μg/mL and the TF-1 cells were centrifuged at 1000 x g for 3 hours to enhance retroviral mediated gene transfer. After centrifugation, the virus was removed and replaced with fresh medium.
(§4) Raw fluorescence data were corrected for background and then normalized to cultures grown in the presence of the DMSO carrier solvent. Each condition was performed in triplicate, and results are presented as the mean of the normalized values ± the SD. The resulting dose-response curves were fitted by non-linear regression analysis for estimation of the IC50 values (see Table 2). […] Fes and Flt3 kinase proteins were then immunoprecipitated from cell lysates followed by immunoblotting with antibodies to phosphotyrosine (pTyr), the Fes activation loop phosphotyrosine (pY713), as well as the Flt3 and Fes proteins.

TF-1/Flt3-D835Y cells = assay: as above; format: cell-based, human; conditions: Homo sapiens, TF-1, 72 h, read-out: Inhibitor sensitivity of TF-1 Cell Populations (IC50, nM) Flt3-D835Y
Protocol: as §1, §3, §4

TF-1/Flt3-ITD cells = assay: as above; format: cell-based, human; conditions: Homo sapiens, TF-1, 72 h, read-out: Inhibitor sensitivity of TF-1 Cell Populations (IC50, nM) Flt3-ITD
Protocol: as §1, §3, §4

[3] = system: TF-1 cells expressing Flt3-WT; assay: as above; format: cell-based; conditions: Homo sapiens, TF-1, 72 h, read-out: Inhibitor sensitivity of TF-1 Cell Populations (IC50, nM) Flt3-WT
Protocol: as §1, §3, §4

[4] = system: Flt3-ITD+ AML cell lines (MV4-11, MOLM-13, MOLM-14); assay: Growth inhibition across Flt3-ITD+ AML cell lines; format: cell-based; conditions: Homo sapiens, 72 h, read-out: IC50 values for growth inhibition, range over the Flt3-ITD+ AML cell lines
Protocol: as §1
Raw fluorescence data were corrected for background and then normalized to cultures grown in the presence of the DMSO carrier solvent. Each assay condition was performed in triplicate, and results are presented as the mean of the normalized values ± the SD.

[5] = system: Flt3-ITD+ AML cell lines (MV4-11, MOLM-13, MOLM-14); assay: Apoptosis, Apo-ONE Caspase 3/7 assay; format: cell-based, human; conditions: 1.0 μM, 72 h
Protocol: as §1
Cell viability was measured in parallel using the CellTiter-Blue assay, and the resulting data are presented as the ratio of Caspase activity to cell viability as per the manufacturer’s protocol. All assays were performed in triplicate, and data are presented as the mean ratios ± SD. Asterisks indicate statistical significance between each treatment group vs. the corresponding DMSO control group with p < 0.05 (Student’s t-test).

[6] = system: Flt3-ITD in MV4-11 and MOLM-14 cells; assay: Immunoprecipitation/immunoblot of Flt3 phosphotyrosine content in AML cells; format: cell-based, human; conditions: compound at in vitro IC90 for Fes, 16 h (tandutinib: IC90 for Flt3-ITD, 6 h)
Protocol: (§5) AML cells (2.5 x 10^6 in 5 mL) were cultured in the presence of kinase inhibitors or DMSO alone for 6 to 16 hours prior to lysis by sonication in RIPA buffer (50 mM Tris-HCl, pH 7.4, 150 mM NaCl, 1 mM EDTA, 1% Triton X-100, 0.1% SDS, 1% sodium deoxycholate) supplemented with 1 mM sodium orthovanadate, 1 mM sodium fluoride, 5 units/ml Benzonase (Novagen), and SigmaFAST EDTA-free protease inhibitor cocktail (Sigma). Flt3 and Fes were immunoprecipitated from 1 mg of cell lysate with 2 μg of antibody and 25 μL of protein G-Sepharose beads (Life Technologies) overnight at 4°C. Immunoprecipitates were washed three times by resuspension in 1.0 ml of RIPA buffer. Immunoprecipitated proteins were separated by SDS-PAGE, transferred to PVDF membranes and probed with the indicated antibodies followed by alkaline phosphatase-linked secondary antibodies. CDP-Star Western Blot Chemiluminescence Reagent (Perkin-Elmer) was used for detection.
(§6) Fes and Flt3 kinase proteins were then immunoprecipitated from cell lysates, followed by immunoblotting with antibodies to phosphotyrosine (pTyr), the Fes activation loop phosphotyrosine (pY713), as well as the Flt3 and Fes proteins.

[7] = system: T1, Fes in MV4-11 and MOLM-14 cells; assay: Immunoprecipitation/immunoblot of Fes activation loop phosphorylation (pY713) in AML cells; format: cell-based, human; conditions: compound at in vitro IC90 for Fes, 16 h (tandutinib: IC90 for Flt3-ITD, 6 h)
T1 construct: endogenous in cells; host or cells: MV4-11 and MOLM-14
Protocol: as §5, §6

[8] = system: Flt3-ITD in TF-1/Flt3-ITD cells; assay: Immunoprecipitation/immunoblot of Flt3 phosphotyrosine content in TF-1/Flt3-ITD cells; format: cell-based, human; conditions: compound at in vitro IC90 for Fes, 16 h (tandutinib: IC90 for Flt3-ITD, 6 h)
Protocol: as §5, §4

[9] = system: Fes in TF-1/Flt3-ITD cells; assay: Immunoprecipitation/immunoblot of Fes pY713 in TF-1/Flt3-ITD cells; format: cell-based, human; conditions: compound at in vitro IC90 for Fes, 16 h (tandutinib: IC90 for Flt3-ITD, 6 h)
Protocol: as §5, §4

[10] = system: Flt3-D835Y in TF-1/Flt3-D835Y cells; assay: Immunoprecipitation/immunoblot of Flt3-D835Y phosphotyrosine content in TF-1/Flt3-D835Y cells; format: cell-based, human; conditions: immunoblot, compound at in vitro IC90
Protocol: as §5, §4

Flt3-ITD in Ba/F3 cells = conditions: 100 nM; cited from earlier work
[11] = system: Flt3-ITD-transformed Ba/F3 cells; conditions: cited from earlier work
Stat5 activation = system: Stat5 activation; parameters: method as in PMID 22411868; conditions: MV4-11 cells and AML patient samples; cited from earlier work
[12] = biological target: T2, recombinant full-length Fes (Homo sapiens, UniProt P07332); assay: In vitro kinase assay (Z'-LYTE); format: biochemical; conditions: highest concentration tested 100 μM
T2 construct: in vitro kinase assays using recombinant purified full-length Fes; made in house; host or cells: E. coli
Protocol: Recombinant protein kinase assays were performed using the FRET-based Z’-LYTE Kinase Assay according to the manufacturer’s instructions (Thermo Fisher Scientific). […] The Tyr-2 peptide was used as substrate for all recombinant kinases. Kinases were preincubated with inhibitors for 30 minutes, followed by addition of ATP and peptide substrate for 1 hour. Reactions were quenched by addition of development reagent, followed by incubation for an additional hour prior to fluorescence measurements on a SpectraMax M5 microplate reader. IC50 values were calculated by non-linear regression analysis of the resulting concentration-response curves using GraphPad PRISM.

[13] = system: Flt3 and Fes in primary AML patient samples; parameters: method as in PMID 20111072; conditions: cited from earlier work
THP-1 cells [14] = assay: Apoptosis, Apo-ONE Caspase 3/7 assay; format: cell-based, human; conditions: 1.0 μM, 72 h
Protocol: as §1
Fig 3 Fes tyrosine kinase inhibitors induce apoptosis in Flt3-ITD^+ AML cell lines. The Flt3-ITD^+ cell lines MV4-11, MOLM-13, and MOLM-14, along with THP-1 (wild-type FLT3), were incubated with each of kinase inhibitors shown at a final concentration of 1 μM and apoptosis was measured 72 h later using the Apo-ONE Caspase 3/7 Assay (Promega). Cell viability was measured in parallel using the CellTiter-Blue assay, and the resulting data are presented as the ratio of Caspase activity to cell viability as per the manufacturer’s protocol. All assays were performed in triplicate, and data are presented as the mean ratios ± SD. […]

T2 sequence (P07332 whole entry): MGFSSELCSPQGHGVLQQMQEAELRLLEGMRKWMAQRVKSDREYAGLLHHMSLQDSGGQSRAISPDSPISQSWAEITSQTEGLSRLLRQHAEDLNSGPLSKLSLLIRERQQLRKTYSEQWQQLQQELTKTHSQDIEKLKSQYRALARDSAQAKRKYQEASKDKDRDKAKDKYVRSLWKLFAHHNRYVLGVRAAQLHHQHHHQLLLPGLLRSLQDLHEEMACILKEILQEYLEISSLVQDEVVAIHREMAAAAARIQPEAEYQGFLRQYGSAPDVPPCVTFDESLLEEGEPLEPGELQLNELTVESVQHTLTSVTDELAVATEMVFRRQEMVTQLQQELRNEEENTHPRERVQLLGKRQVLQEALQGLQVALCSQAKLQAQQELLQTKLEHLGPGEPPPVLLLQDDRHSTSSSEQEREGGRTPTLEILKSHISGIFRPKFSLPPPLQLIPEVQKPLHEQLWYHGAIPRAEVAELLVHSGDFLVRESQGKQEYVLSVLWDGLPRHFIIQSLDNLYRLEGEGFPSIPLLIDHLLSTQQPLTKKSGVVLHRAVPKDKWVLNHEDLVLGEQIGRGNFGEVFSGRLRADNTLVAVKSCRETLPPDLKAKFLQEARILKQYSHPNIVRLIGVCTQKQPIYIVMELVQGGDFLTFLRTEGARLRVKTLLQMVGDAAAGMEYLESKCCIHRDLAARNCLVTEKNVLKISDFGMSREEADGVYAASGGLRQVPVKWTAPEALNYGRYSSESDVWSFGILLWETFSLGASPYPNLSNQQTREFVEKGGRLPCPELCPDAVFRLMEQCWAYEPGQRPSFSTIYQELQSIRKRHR

Work on `COc1cc(N2CCC(N3CCN(C)CC3)CC2)ccc1Nc1ncc(Cl)c(Nc2ccccc2S(=O)(=O)C(C)C)n1` [TAE-684, reference compound] yielded an IC50 (MOLM-13 cells) of 166 nM, an IC50 (MOLM-14 cells) of 74 nM and an IC50 (MV4-11 cells) of 123 nM. The IC50 (THP-1 cells [1]) was > 3000 nM, the IC50 ([2]; Homo sapiens, TF-1, empty vector control, 72 h) was > 1000 nM and the “Nonspecific cytotoxicity in TF-1 cells expressing wild-type Flt3 or vector control cells” value ([2]; TF-1/Flt3-WT and vector control cells) was “some nonspecific cytotoxicity in the low micromolar range”. For the same compound, the IC50 (TF-1/Flt3-D835Y cells) was 83 nM, the IC50 (TF-1/Flt3-ITD cells) was 82 nM and the IC50 [3] was > 1000 nM. The IC50 [4] was 19 to 166 nM, the “Apoptosis (Caspase 3/7 activity) in Flt3-ITD+ AML cell lines” value [5] was “equal to or greater than that observed with tandutinib” and the “Inhibition of Flt3-ITD phosphotyrosine content in MV4-11 and MOLM-14 cells” value [6] was “no effect”. The “Inhibition of Fes activation loop phosphorylation in MV4-11 and MOLM-14 cells” value [7] was “did inhibit Fes”, the “Inhibition of Flt3-ITD phosphotyrosine content in TF-1/Flt3-ITD cells” value [8] was “no effect on Flt3-ITD; also recorded: did not affect Flt3-ITD phosphotyrosine content” and the “Inhibition of Fes activation loop phosphorylation in TF-1/Flt3-ITD cells” value [9] was “inhibited Fes”. For the same compound, the “Inhibition of Flt3-D835Y phosphotyrosine content in TF-1/Flt3-D835Y cells” value [10] was “complete inhibition; also recorded: completely suppressed”, the “Effect on Flt3-ITD phosphotyrosine content in Ba/F3 cells expressing Flt3-ITD” value (Flt3-ITD in Ba/F3 cells) was “no effect” and the “Effect on Flt3-ITD-transformed Ba/F3 cell proliferation” value [11] was “no effect”.
For `Cc1nc(Nc2ncc(C(=O)Nc3c(C)cccc3Cl)s2)cc(N2CCN(CCO)CC2)n1` [dasatinib], the “Effect on Stat5 activation” value (Stat5 activation) is listed as “reduced Stat5 activation”.
Work on `COc1cc2c(N3CCN(C(=O)Nc4ccc(OC(C)C)cc4)CC3)ncnc2cc1OCCCN1CCCCC1` [Tandutinib, reference compound] yielded an IC50 (MOLM-13 cells) of 532 nM, an IC50 (MOLM-14 cells) of 232 nM and an IC50 (MV4-11 cells) of 502 nM. The IC50 (THP-1 cells [1]) was > 3000 nM, the “Effect on Fes kinase activity in vitro (words)” value [12] was “does not inhibit Fes in vitro or in cells” and the “Effect on Fes kinase activity in vitro (words)” value ([12]; listed as tandutinib) was “no effect”. For the same compound, the “Inhibition of Fes activation loop phosphorylation in MV4-11 and MOLM-14 cells” value [7] was “little effect”.
For `Cc1cc(C)c(/C=C2\C(=O)Nc3ccccc32)[nH]1` [SU5416], the “Effect on Flt3 and Fes activation in primary AML patient samples” value [13] is listed as “reduced both Flt3 and Fes activation”.
In the case of `CN[C@@H]1C[C@H]2O[C@@](C)([C@@H]1OC)n1c3ccccc3c3c4c(c5c6ccccc6n2c5c31)C(=O)NC4` [staurosporine, reference compound], the “Apoptosis (Caspase 3/7 activity) in Flt3-ITD+ AML cell lines” value [5] is reported as “strong apoptotic response” and the “Apoptosis (Caspase 3/7 activity) in THP-1 cells” value (THP-1 cells [14]) is reported as “strong apoptotic response”.

Source: article PMC5519068 (PLoS ONE, 2017)
